Key:
Type in all cases: cell-based
[1] = molecular target: T1, signal peptidase IB (SpsB) (Staphylococcus aureus, UniProt P0A070); experiment: FRET substrate cleavage assay with SpsB (activation)
T1 sequence (P0A070 1-191): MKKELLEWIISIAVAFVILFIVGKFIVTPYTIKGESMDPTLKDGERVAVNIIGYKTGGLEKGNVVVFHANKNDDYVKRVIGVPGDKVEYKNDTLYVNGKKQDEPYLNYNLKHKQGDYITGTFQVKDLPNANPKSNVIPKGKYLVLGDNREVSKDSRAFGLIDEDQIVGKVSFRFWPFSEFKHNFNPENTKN

[2] = molecular target: signal peptidase IB (SpsB) (Staphylococcus aureus, UniProt P0A070, Q165A); experiment: enzyme turnover assay with SpsB mutant (activation retained)
[3] = molecular target: signal peptidase IB (SpsB) (Staphylococcus aureus, UniProt P0A070); experiment: FRET substrate cleavage assay with membrane-bound SpsB (activation); supported by competition of photoprobe labelling in cells and loss of activation in pocket mutants

SMILES | FRET substrate cleavage assay with SpsB (activation) [1] | enzyme turnover assay with SpsB mutant (activation retained) [2] | % [3]
NCc1ccc(-c2ccc(Br)cc2)o1 [D14] | Further structural derivatives (D10, D14, and D16) also showed SpsB activation in the FRET assay |  | 
N=C(N)NCc1ccc(-c2ccc(Br)cc2)s1 [D10] | Further structural derivatives (D10, D14, and D16) also showed SpsB activation in the FRET assay |  | 
N=C(N)NCc1ccc(-c2ccc(Br)cc2)o1 [L15] |  | while Q165A, a control mutation that does not affect binding, still showed activation | ~ 150%
Nc1nccn1Cc1ccc(-c2ccc(Br)cc2)o1 [D16] | Further structural derivatives (D10, D14, and D16) also showed SpsB activation in the FRET assay |  | 
